Measurements: patent publication US12098148B2, “Therapeutic compounds” (C4X Discovery Limited, priority 2018, dated 2024)

Key:
[1] = molecular target: human KEAP1 (N-term, residues 321-609) (Homo sapiens, UniProt Q14145); assay: biochemical;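 further: fluorescence polarization competition assay of Kelch domain binding to NRF2, 12-point 1:3 dilution series from 10 µM, read after 1 h at room temperature, floor 10 nM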
[2] = system: NQO1 mRNA in BEAS-2B cells; assay: Beas2B NQO1 mRNA cell based assay; design: species or system human; conditions: Homo sapiens, BEAS-2B, 24 h, 24 h compound treatment, increase in NQO1 mRNA vs vehicle (0.1% DMSO), read-out: EC50
Method in brief: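 Relative NQO1 transcript level derived by ΔΔCT with human β-actin as internal control, using direct-lysate one-step RT-qPCR. Cells were BEAS-2B, plated overnight then treated with compound for 24 h.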

Sequence of human KEAP1 (N-term, residues 321-609) (Q14145 321-609): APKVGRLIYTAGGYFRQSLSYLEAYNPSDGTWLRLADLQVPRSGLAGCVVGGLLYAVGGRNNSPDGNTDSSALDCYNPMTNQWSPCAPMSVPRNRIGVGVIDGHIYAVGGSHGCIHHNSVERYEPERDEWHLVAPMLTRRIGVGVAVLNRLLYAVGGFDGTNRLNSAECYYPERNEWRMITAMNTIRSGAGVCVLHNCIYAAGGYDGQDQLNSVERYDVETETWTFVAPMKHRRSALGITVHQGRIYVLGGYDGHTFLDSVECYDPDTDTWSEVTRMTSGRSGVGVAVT

SMILES	IC50 [1] [nM]	EC50 [2] [nM]
CC1(C)CC(COc2ccc(Cl)c3c2[C@@H](CN2CC4(CC4)CC2=O)N(C(=O)[C@@H]2CCCC[C@]2(C)C(=O)O)CC3)=NO1 [Example 136, (1S,2R)-2-((S)-5-chloro-8-((5,5-dimethyl-4,5-dihydroisoxazol-3-yl)methoxy)-1-((6-oxo-5-azaspiro[2.4]heptan-5-yl)methyl)-1,2,3,4-tetrahydroisoquinoline-2-carbonyl)-1-methylcyclohexane-1-carboxylic acid]	22	1700
Cc1conc1COc1ccc(Cl)c2c1[C@@H](CN1CCCC1=O)N(C(=O)[C@@H]1CCCC[C@]1(C)C(=O)O)CC2 [Example 137, (1S,2R)-2-((S)-5-chloro-8-((4-methylisoxazol-3-yl)methoxy)-1-((2-oxopyrrolidin-1-yl)methyl)-1,2,3,4-tetrahydroisoquinoline-2-carbonyl)-1-methylcyclohexane-1-carboxylic acid]	6.3	6.7
C[C@]1(C(=O)O)CCCC[C@H]1C(=O)N1CCc2c(Cl)ccc(OCc3noc4c3CCCC4)c2[C@H]1CN1CCCC1=O [Example 138, (1S,2R)-2-((S)-5-chloro-1-((2-oxopyrrolidin-1-yl)methyl)-8-((4,5,6,7-tetrahydrobenzo[d]isoxazol-3-yl)methoxy)-1,2,3,4-tetrahydroisoquinoline-2-carbonyl)-1-methylcyclohexane-1-carboxylic acid]	7.9	0.8
Cn1nnc(COc2ccc(Cl)c3c2[C@@H](CN2CC4(CC4)CC2=O)N(C(=O)[C@@H]2OCCC[C@@H]2C(=O)O)CC3)c1C(F)F [Example 140, (2R,3S)-2-((S)-5-chloro-8-((5-(difluoromethyl)-1-methyl-1H-1,2,3-triazol-4-yl)methoxy)-1-((6-oxo-5-azaspiro[2.4]heptan-5-yl)methyl)-1,2,3,4-tetrahydroisoquinoline-2-carbonyl)tetrahydro-2H-pyran-3-carboxylic acid]	4.5	150
Cn1nnc(COc2ccc(Cl)c3c2[C@@H](CN2CCCC2=O)N(C(=O)[C@@H]2CC4CCC2(C(=O)O)CC4)CC3)c1C(F)F [Example 141, (R)-2-((S)-5-chloro-8-((5-(difluoromethyl)-1-methyl-1H-1,2,3-triazol-4-yl)methoxy)-1-((2-oxopyrrolidin-1-yl)methyl)-1,2,3,4-tetrahydroisoquinoline-2-carbonyl)bicyclo[2.2.2]octane-1-carboxylic acid]	7	35
[2H]C1([2H])CC[C@](C)(C(=O)O)[C@H](C(=O)N2CCc3c(Cl)ccc(OCc4nnn(C)c4C(F)F)c3[C@H]2CN2CC3(CC3)CC2=O)C1 [Example 142, (1S,2R)-2-((S)-5-chloro-8-((5-(difluoromethyl)-1-methyl-1H-1,2,3-triazol-4-yl)methoxy)-1-((6-oxo-5-azaspiro[2.4]heptan-5-yl)methyl)-1,2,3,4-tetrahydroisoquinoline-2-carbonyl)-1-methylcyclohexane-1-carboxylic-4,4-d2 acid]	5	0.21
Cc1c(COc2c(F)cc(Cl)c3c2[C@@H](CN2CC4(CC4)CC2=O)N(C(=O)[C@@H]2CCCC[C@]2(C)C(=O)O)CC3)nnn1C [Example 143, (1S,2R)-2-((S)-5-chloro-8-((1,5-dimethyl-1H-1,2,3-triazol-4-yl)methoxy)-7-fluoro-1-((6-oxo-5-azaspiro[2.4]heptan-5-yl)methyl)-1,2,3,4-tetrahydroisoquinoline-2-carbonyl)-1-methylcyclohexane-1-carboxylic acid]	5.2	0.05
COCCn1nnc(COc2ccc(Cl)c3c2[C@@H](CN2CCCC2=O)N(C(=O)[C@@H]2CCCC[C@]2(C)C(=O)O)CC3)c1C(F)F [Example 145, (1S,2R)-2-((S)-5-chloro-8-((5-(difluoromethyl)-1-(2-methoxyethyl)-1H-1,2,3-triazol-4-yl)methoxy)-1-((2-oxopyrrolidin-1-yl)methyl)-1,2,3,4-tetrahydroisoquinoline-2-carbonyl)-1-methylcyclohexane-1-carboxylic acid]	6.4	4.9
C[C@]1(C(=O)O)CCCC[C@H]1C(=O)N1CCc2c(Cl)cc(F)c(OCc3nnn4c3CCC4)c2[C@H]1CN1CC2(CC2)CC1=O [Example 146, (1S,2R)-2-((S)-5-chloro-8-((5,6-dihydro-4H-pyrrolo[1,2-c][1,2,3]triazol-3-yl)methoxy)-7-fluoro-1-((6-oxo-5-azaspiro[2.4]heptan-5-yl)methyl)-1,2,3,4-tetrahydroisoquinoline-2-carbonyl)-1-methylcyclohexane-1-carboxylic acid]	5.7	0.23
Cn1nnc(COc2c(F)cc(Cl)c3c2[C@@H](CN2CCCC2=O)N(C(=O)[C@@H]2CCCC[C@]2(C)C(=O)O)CC3)c1C(F)F [Example 147, (1S,2R)-2-((S)-5-chloro-8-((5-(difluoromethyl)-1-methyl-1H-1,2,3-triazol-4-yl)methoxy)-7-fluoro-1-((2-oxopyrrolidin-1-yl)methyl)-1,2,3,4-tetrahydroisoquinoline-2-carbonyl)-1-methylcyclohexane-1-carboxylic acid]	5.1	0.29
Cn1ccc(COc2ccc(Cl)c3c2[C@@H](CN2CC4(CC4)CC2=O)N(C(=O)[C@@H]2CCCC[C@]2(C)C(=O)O)CC3)cc1=O [Example 148, (1S,2R)-2-((S)-5-chloro-8-((1-methyl-2-oxo-1,2-dihydropyridin-4-yl)methoxy)-1-((6-oxo-5-azaspiro[2.4]heptan-5-yl)methyl)-1,2,3,4-tetrahydroisoquinoline-2-carbonyl)-1-methylcyclohexane-1-carboxylic acid]	6.6	22
C[C@@H]1CC(=O)N(C[C@@H]2c3c(OCc4nnn(C)c4C(F)F)ccc(Cl)c3CCN2C(=O)[C@H]2CCCC[C@]2(C)C(=O)O)C1 [Example 149, (1S,2S)-2-((S)-5-chloro-8-((5-(difluoromethyl)-1-methyl-1H-1,2,3-triazol-4-yl)methoxy)-1-(((R)-4-methyl-2-oxopyrrolidin-1-yl)methyl)-1,2,3,4-tetrahydroisoquinoline-2-carbonyl)-1-methylcyclohexane-1-carboxylic acid]	28	73
Cn1nnc(COc2ccc(Cl)c3c2[C@@H](CN2CC4(CC4)CC2=O)N(C(=O)[C@@H]2CCCC[C@]2(C)C(=O)O)CC3)c1C(F)(F)F [Example 150, (1S,2R)-2-((S)-5-chloro-8-((1-methyl-5-(trifluoromethyl)-1H-1,2,3-triazol-4-yl)methoxy)-1-((6-oxo-5-azaspiro [2.4]heptan-5-yl)methyl)-1,2,3,4-tetrahydroisoquinoline-2-carbonyl)-1-methylcyclohexane-1-carboxylic acid]	5	0.97
Cn1nnc(COc2ccc(Cl)c3c2[C@@H](CN2CC(C)(C)CC2=O)N(C(=O)[C@@H]2CCCC[C@]2(C)C(=O)O)CC3)c1C(F)F [Example 152, (1S,2R)-2-((S)-5-chloro-8-((5-(difluoromethyl)-1-methyl-1H-1,2,3-triazol-4-yl)methoxy)-1-((4,4-dimethyl-2-oxopyrrolidin-1-yl)methyl)-1,2,3,4-tetrahydroisoquinoline-2-carbonyl)-1-methylcyclohexane-1-carboxylic acid]	7.2	10
Cn1nnc(COc2ccc(Cl)c3c2[C@@H](CN2CC4(CC4)CC2=O)N(C(=O)[C@@H]2CCC[C@]2(C)C(=O)O)CC3)c1C(F)(F)F [Example 153, (1S,2R)-2-((S)-5-chloro-8-((1-methyl-5-(trifluoromethyl)-1H-1,2,3-triazol-4-yl)methoxy)-1-((6-oxo-5-azaspiro [2.4]heptan-5-yl)methyl)-1,2,3,4-tetrahydroisoquinoline-2-carbonyl)-1-methylcyclopentane-1-carboxylic acid]	9	7
Cc1onc(COc2ccc(Cl)c3c2[C@@H](CN2CC4(CC4)CC2=O)N(C(=O)[C@@H]2CCCC[C@]2(C)C(=O)O)CC3)c1C(F)(F)F [Example 154, (1S,2R)-2-((S)-5-chloro-8-((5-methyl-4-(trifluoromethyl)isoxazol-3-yl)methoxy)-1-((6-oxo-5-azaspiro[2.4]heptan-5-yl)methyl)-1,2,3,4-tetrahydroisoquinoline-2-carbonyl)-1-methylcyclohexane-1-carboxylic acid]	9.3	18
C[C@]1(C(=O)O)CCCC[C@H]1C(=O)N1CCc2c(Cl)ccc(OCc3nnn(CC(F)(F)F)c3C(F)F)c2[C@H]1CN1CCCC1=O [Example 155, (1S,2R)-2-((S)-5-chloro-8-((5-(difluoromethyl)-1-(2,2,2-trifluoroethyl)-1H-1,2,3-triazol-4-yl)methoxy)-1-((2-oxopyrrolidin-1-yl)methyl)-1,2,3,4-tetrahydroisoquinoline-2-carbonyl)-1-methylcyclohexane-1-carboxylic acid]	16	4.8
Cc1c(COc2ccc(Cl)c3c2[C@@H](CN2CC4(CC4)CC2=O)N(C(=O)[C@@H]2CCCC[C@]2(C)C(=O)O)CC3)nnn1C [Example 156, (1S,2R)-2-((S)-5-chloro-8-((1,5-dimethyl-1H-1,2,3-triazol-4-yl)methoxy)-1-((6-oxo-5-azaspiro[2.4]heptan-5-yl)methyl)-1,2,3,4-tetrahydroisoquinoline-2-carbonyl)-1-methylcyclohexane-1-carboxylic acid]	5.1	0.29
Cc1onc(COc2ccc(Cl)c3c2[C@@H](CN2CC4(CC4)CC2=O)N(C(=O)[C@@H]2CCCC[C@]2(C)C(=O)O)CC3)c1C(F)F [Example 157, (1S,2R)-2-((S)-5-chloro-8-((4-(difluoromethyl)-5-methylisoxazol-3-yl)methoxy)-1-((6-oxo-5-azaspiro [2.4]heptan-5-yl)methyl)-1,2,3,4-tetrahydroisoquinoline-2-carbonyl)-1-methylcyclohexane-1-carboxylic acid]	5.9	4.9
